In PubChem BioAssay (NCI):
Several values for one entry are separate records, joined by “and”; a condition that tells them apart may be missing. Equal entries are not always repeated.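 All cell lines were grown in 96-well plates and treated with compound for 48 hours. GI50: concentration for 50% inhibition of growth. TGI marks complete inhibition of growth.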

Legend:
Assay in all cases: NCI anticancer screen, dose series, 48 h
DLD-1 colon = system: DLD-1 colon
HCT-15 colon = system: HCT-15 colon
KM20L2 colon = system: KM20L2 colon
M14 melanoma = system: M14 melanoma
MOLT-4 leukemia = system: MOLT-4 leukemia
RXF 393 renal = system: RXF 393 renal
SF-539 CNS = system: SF-539 CNS
U251 CNS = system: U251 CNS
MALME-3M melanoma = system: MALME-3M melanoma
NCI-H226 lung = system: NCI-H226 lung

SMILES	TGI (DLD-1 colon)	TGI (HCT-15 colon)	TGI (KM20L2 colon)	TGI (M14 melanoma)	TGI (MOLT-4 leukemia)	TGI (RXF 393 renal)	TGI (SF-539 CNS)	TGI (U251 CNS)	GI50 (HCT-15 colon)	GI50 (M14 melanoma)	GI50 (MALME-3M melanoma)	TGI (MALME-3M melanoma)	GI50 (MOLT-4 leukemia)	GI50 (NCI-H226 lung)	TGI (NCI-H226 lung)	GI50 (RXF 393 renal)	GI50 (SF-539 CNS)	GI50 (U251 CNS)
COc1ccc2c(c1O)C(=O)C(CCC(=O)O)CC2 (stereo not given)	> 100 µM	> 100 µM	> 100 µM	> 100 µM	> 100 µM	> 100 µM	> 100 µM	> 100 µM	–	–	–	–	–	–	–	–	–	–
N=C(N)/N=C(\N)c1c(-c2cc(O)ccc2O)nc2sccn12	–	74.8 µM	–	37.9 µM	> 100 µM	41.6 µM	38.4 µM	> 100 µM	26 µM	19.8 µM	15.9 µM	35.4 µM	29.4 µM	> 100 µM	> 100 µM	20.6 µM	20.4 µM	46.1 µM
C#CCSc1n[nH]c(-c2ccco2)n1	–	> 100 µM	–	> 100 µM	> 100 µM	> 100 µM	> 100 µM	> 100 µM	–	–	–	> 100 µM	–	–	> 100 µM	–	–	–
O=C(CCCCCCCn1cc(-c2cccnc2)nn1)Nc1ccccc1-c1ccccc1	–	> 100 µM	–	16.5 µM	23.4 µM	> 100 µM	> 78.8 µM	> 100 µM	0.231 µM	0.0914 µM	5.71 µM	41.8 µM	2.31 µM	14.5 µM	50.2 µM	> 43.6 µM	0.0522 µM	0.22 µM
Cc1cccc(-c2nn3c(c2-c2ccnc4ccc(C(N)=O)cc24)CCC3)n1	–	> 100 µM	–	> 100 µM	> 100 µM	> 100 µM	> 100 µM	> 100 µM	> 100 µM	> 91.9 µM	57.2 µM	> 100 µM	> 100 µM	> 100 µM	> 100 µM	> 100 µM	> 100 µM	> 100 µM
CCc1c2c(nc3cc4c(c(N)c13)OCO4)-c1cc3c(c(=O)n1C2)COC(=O)[C@]3(O)CC	–	> 100 µM	–	1.03 µM	–	0.44 µM and 0.382 µM	0.038 µM	0.0326 µM and 0.174 µM	0.277 µM and 0.178 µM	< 0.001 µM	0.0276 µM	4.25 µM	< 0.001 µM	< 0.001 µM	0.202 µM	0.0188 µM and 0.043 µM	< 0.001 µM	< 0.001 µM
COc1cccc(Cn2c(-c3nonc3N)nc3ccccc32)c1	–	> 100 µM	–	> 100 µM	> 100 µM	0.675 µM	0.696 µM	> 92.2 µM	0.399 µM	0.532 µM	0.425 µM	> 95.1 µM	0.632 µM	1.16 µM	> 22 µM	0.244 µM	0.237 µM	0.436 µM
